Experimental data reported in patent US20260176289A1, “SMALL MOLECULE INHIBITORS OF KRAS PROTEINS” (Merck Sharp & Dohme LLC, priority 2022, published 2026).
Read-outs that look alike come from different tables or passages of the source.

Key:
[1] = test system: SW620 cells; assay: Cellular phospho-ERK assay, SW620 cells (homozygous KRAS-G12V); assay type: cell-based; details: Homo sapiens, read-out: SW620 pERK IC50
Summary of the method: (§1)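 Overnight-plated cells on collagen received test compound (up to 30 μM final, threefold steps, ten concentrations) for two hours. After lysis at room temperature, phosphorylated and total ERK were quantified together by Alpha SureFire, and IC50 is based on the phospho-to-total signal ratio.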

[2] = biological target: KRAS-G12C (C51S/C80L/C118S) (Homo sapiens, UniProt P01116, C118S/C51S/C80L/G12C); assay: SOS-catalyzed nucleotide exchange assay (Procedure A, TR-FRET), KRAS-G12C; assay type: biochemical; details: nucleotide exchange, Procedure A; read-out: KRAS G12C GNE IC50
Summary of the method: (§2)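 Inhibitors stabilizing the Bodipy-GDP state are detected as retained TR-FRET from a preformed biotinylated RAS/Tb-streptavidin complex. They are preincubated 60 min at room temperature, then human SOS and 3 mM GTP are added. G12V runs 90 min at 1.25 nM RAS/160 nM SOS. G12C (3 nM), WT (1 nM) and NRAS (1.25 nM) run 60 min with 40 nM SOS.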

[3] = biological target: KRAS-G12V (Homo sapiens, UniProt P01116, G12V); assay: SOS-catalyzed nucleotide exchange assay (Procedure A, TR-FRET), KRAS-G12V; assay type: biochemical; details: nucleotide exchange, read-out: KRAS G12V GNE IC50
Summary of the method: as §2

[4] = biological target: KRAS-WT (Homo sapiens, UniProt P01116); assay: SOS-catalyzed nucleotide exchange assay (Procedure A, TR-FRET), KRAS-WT; assay type: biochemical; details: nucleotide exchange, read-out: KRAS WT GNE IC50
Summary of the method: as §2

[5] = biological target: KRAS-G12D (Homo sapiens, UniProt P01116, G12D); assay: SOS-catalyzed nucleotide exchange assay (Procedure A, TR-FRET), KRAS-G12D; assay type: biochemical; details: nucleotide exchange, read-out: KRAS G12D GNE IC50
Summary of the method: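 Signal ratio (520/495 nm, excitation 340 nm) reports Bodipy-GDP retention on biotinylated RAS after SOS-catalyzed exchange with 3 mM GTP. SOS was 40 nM, except 160 nM for G12V. Room-temperature exchange lasted 60 min (90 min for G12V), following a 60 min compound preincubation.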

[6] = biological target: KRAS-G13D (Homo sapiens, UniProt P01116, G13D); assay: SOS-catalyzed nucleotide exchange assay (Procedure A, TR-FRET), KRAS-G13D; assay type: biochemical; details: nucleotide exchange, Procedure A; read-out: KRAS G13D GNE IC50
[7] = test system: MKN-1 cells; assay: Cellular phospho-ERK assay, MKN-1 cells (amplified wild-type KRAS); assay type: cell-based; details: Homo sapiens, read-out: MKN1 pERK IC50
Summary of the method: as §1

[8] = test system: AsPC-1 cells; assay: Cellular phospho-ERK assay, AsPC-1 cells (homozygous KRAS-G12D); assay type: cell-based; details: Homo sapiens, ASPC1, 2 h, read-out: AsPC1 pERK IC50
Summary of the method: as §1

KRAS-G12V, sequence (P01116 with tags, fused parts or gaps isoform P01116-2 G12V): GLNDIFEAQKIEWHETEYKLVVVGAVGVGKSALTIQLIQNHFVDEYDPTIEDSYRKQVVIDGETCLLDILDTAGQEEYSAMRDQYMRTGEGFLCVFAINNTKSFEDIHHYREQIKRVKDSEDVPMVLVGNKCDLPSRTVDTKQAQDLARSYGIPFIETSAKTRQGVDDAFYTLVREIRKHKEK
KRAS-G12C (C51S/C80L/C118S), sequence (P01116 with tags, fused parts or gaps isoform P01116-2 G12C/C51S/C80L/C118S): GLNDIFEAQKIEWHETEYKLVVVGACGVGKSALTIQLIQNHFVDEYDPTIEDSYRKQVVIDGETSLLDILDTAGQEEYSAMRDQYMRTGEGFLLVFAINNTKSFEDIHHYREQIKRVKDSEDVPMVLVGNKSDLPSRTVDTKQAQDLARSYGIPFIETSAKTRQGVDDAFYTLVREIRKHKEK
KRAS-G12D, sequence (P01116 with tags, fused parts or gaps isoform P01116-2 G12D): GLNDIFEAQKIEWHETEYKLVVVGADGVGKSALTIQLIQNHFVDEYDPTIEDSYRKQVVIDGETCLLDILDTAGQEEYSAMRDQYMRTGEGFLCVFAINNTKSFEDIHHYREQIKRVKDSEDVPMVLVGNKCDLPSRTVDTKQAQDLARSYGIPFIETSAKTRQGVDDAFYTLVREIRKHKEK
KRAS-WT, sequence (P01116 with tags, fused parts or gaps isoform P01116-2): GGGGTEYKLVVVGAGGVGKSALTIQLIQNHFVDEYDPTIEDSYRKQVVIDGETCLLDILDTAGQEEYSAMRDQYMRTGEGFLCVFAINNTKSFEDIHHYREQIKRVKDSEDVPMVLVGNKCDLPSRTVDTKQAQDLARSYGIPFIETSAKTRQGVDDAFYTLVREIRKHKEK
KRAS-G13D, sequence (P01116 with tags, fused parts or gaps isoform P01116-2 G13D): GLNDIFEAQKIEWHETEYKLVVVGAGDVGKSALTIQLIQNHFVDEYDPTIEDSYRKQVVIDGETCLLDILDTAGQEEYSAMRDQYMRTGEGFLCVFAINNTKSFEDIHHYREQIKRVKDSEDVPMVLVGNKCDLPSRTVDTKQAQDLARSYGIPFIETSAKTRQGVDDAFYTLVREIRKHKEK

SMILES	IC50 ([1]; SW-620, 2 hours compound incubation) [nM]	IC50 [2] [nM]	IC50 [3] [nM]	IC50 [4] [nM]	IC50 [5] [nM]	IC50 [6] [nM]	IC50 ([7]; 2 hours compound incubation) [nM]	IC50 ([8]; 2 hours compound incubation) [nM]	IC50 ([1]; SW-620, KRAS-G12V, 2 hours) [nM]	IC50 ([7]; amplified wild-type KRAS, 2 hours) [nM]	IC50 ([8]; KRAS-G12D, 2 hours) [nM]
C=C1CN2C[C@H](F)C[C@@]2(COc2nc(N3CCOC[C@@](C)(O)C3)c3c(n2)sc2c(-c4c(C5CC5)c(Cl)cc5[nH]ncc45)nccc23)C1 [Ex-223, (6S)-4-(8-(6-chloro-5-cyclopropyl-1H-indazol-4-yl)-2-(((2R,7aR)-2-fluoro-6-methylenetetra-hydro-1H-pyrrol-izin-7a(5H)-yl)methoxy)pyrido [4′,3′:4,5]thieno[2,3-d]pyrimidin-4-yl)-6-methyl-1,4-oxaze-pan-6-ol]	23.6	111	34.1	24.5	9.27	37.6	42.9	63.8	–	–	–
C[C@@]1(O)COCCN(c2nc(OC[C@@]34CCCN3C/C(=C\F)C4)nc3sc4c(-c5c(C6(F)CC6)c(C(F)(F)F)cc6[nH]ncc56)nccc4c23)C1 [Ex-56, (6S)-4-(8-(5-(1-fluorocyclopropyl)-6-(trifluoromethyl)-1H-indazol-4-yl)-2-(((S,Z)-2-(fluoromethylene)tetrahy-dro-1H-pyrrolizin-7a(5H)-yl)methoxy)pyrido[4′,3′:4,5]thi-eno[2,3-d]pyrimidin-4-yl)-6-methyl-1,4-oxazepan-6-ol]	–	128	32.6	26.5	9.15	22.6	–	–	57.5	45.6	48.9
Cc1cc2[nH]ncc2c(-c2nccc3c2sc2nc(OC[C@@]45CCCN4C[C@H](F)C5)nc(N4CCOC[C@@](C)(O)C4)c23)c1-c1ccco1 [Ex-146, (6S)-4-(2-(((2R, 7aS)-2-fluorotetra-hydro-1H-pyrrol-izin-7a(5H)-yl)meth-oxy)-8-(5-(furan-2-yl)-6-methyl-1H-indazol-4-yl)pyrido [4′,3′:4,5]thieno[2,3-d]pyrimidin-4-yl)-6-methyl-1,4-oxaze-pan-6-ol]	–	77.6	22.1	58.2	15.3	29.4	–	153	–	–	–

Second part, led by results:

IC50 ([1]; SW-620, 2 hours compound incubation) [nM]	IC50 [2] [nM]	IC50 [3] [nM]	IC50 [4] [nM]	IC50 [5] [nM]	IC50 [6] [nM]	IC50 ([7]; 2 hours compound incubation) [nM]	IC50 ([8]; 2 hours compound incubation) [nM]	SMILES	IC50 ([1]; SW-620, KRAS-G12V, 2 hours) [nM]	IC50 ([7]; amplified wild-type KRAS, 2 hours) [nM]	IC50 ([8]; KRAS-G12D, 2 hours) [nM]
–	112	9.35	27.6	6.61	20.4	–	91.4	C[C@@]1(O)COCCN(c2nc(OC[C@@]34CCCN3C[C@H](F)C4)nc3sc4c(-c5c(-c6ccco6)c(Cl)cc6[nH]ncc56)nccc4c23)C1 [Ex-148, (6S)-4-(8-(6-chloro-5-(furan-2-yl)-1H-indazol-4-yl)-2-(((2R,7aS)-2-fluoro-tetrahydro-1H-pyr-rolizin-7a(5H)-yl)-methoxy)pyrido [4′,3′:4,5]thieno[2,3-d]pyrimidin-4-yl)-6-methyl-1,4-oxaze-pan-6-ol]	–	–	–
–	48.3	118	658	260	328	–	1170	C#Cc1cccc2[nH]nc(-c3nccc4c3sc3nc(OC[C@@]56CCCN5C[C@H](F)C6)nc(N5CCOC[C@@](C)(O)C5)c34)c12 [Ex-159, (S)-4-(8-(4-ethynyl-1H-indazol-3-yl)-2-(((2R,7aS)-2-fluorotetrahydro-1H-pyrrolizin-7a(5H)-yl)methoxy)pyrido[4′,3′:4,5]thieno[2,3-d]pyrimidin-4-yl)-6-methyl-1,4-oxazepan-6-ol]	–	–	–
–	52.9	109	197	108	124	–	330	C[C@@]1(O)COCCN(c2nc(OC[C@@]34CCCN3C[C@H](F)C4)nc3sc4c(-c5c(-c6cccs6)c(Cl)cc6[nH]ncc56)nccc4c23)C1 [Ex-143, (6S)-4-(8-(6-chloro-5-(thiophen-2-yl)-1H-indazol-4-yl)-2-(((2R,7aS)-2-fluoro-tetrahydro-1H-pyr-rolizin-7a(5H)-yl)-methoxy)pyrido [4′,3′:4,5]thieno[2,3-d]pyrimidin-4-yl)-6-methyl-1,4-oxaze-pan-6-ol]	–	–	–
